Data from PMC2248166, “Quantitative peptide binding motifs for 19 human and mouse MHC class I molecules derived using positional scanning combinatorial peptide libraries” (Immunome Research, 2008).

Experiments:
HLA B*0801 = HLA B*0801 (Homo sapiens, UniProt P01889, A93T/A95T/D138N/E176V/E187T/K202T/Q94N/R180D/S35A/V36M/Y33D/Y91F); assay: biochemical; type: binding
HLA B*5101 = HLA B*5101 (Homo sapiens, UniProt P01889, A329T/A93T/A95T/C349S/D138N/D201E/D98Y/E187L/E204Q/E69T/G107R/I218V/K202T/L105A/L119W/N104I/Q94N/R106L/R155S/R180L/S101N/S121T/S35A/S48A/V306I/V36M/Y195H/Y91F); type: binding
H-2 D^b = H-2 D^b (Mus musculus, UniProt P01899); type: binding
Chain of H-2 D^b (P01887 21-119): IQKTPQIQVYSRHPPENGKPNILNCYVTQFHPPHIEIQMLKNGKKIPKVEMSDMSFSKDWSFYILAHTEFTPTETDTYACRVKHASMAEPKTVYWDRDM
Chain of H-2 D^b (P01899 25-362): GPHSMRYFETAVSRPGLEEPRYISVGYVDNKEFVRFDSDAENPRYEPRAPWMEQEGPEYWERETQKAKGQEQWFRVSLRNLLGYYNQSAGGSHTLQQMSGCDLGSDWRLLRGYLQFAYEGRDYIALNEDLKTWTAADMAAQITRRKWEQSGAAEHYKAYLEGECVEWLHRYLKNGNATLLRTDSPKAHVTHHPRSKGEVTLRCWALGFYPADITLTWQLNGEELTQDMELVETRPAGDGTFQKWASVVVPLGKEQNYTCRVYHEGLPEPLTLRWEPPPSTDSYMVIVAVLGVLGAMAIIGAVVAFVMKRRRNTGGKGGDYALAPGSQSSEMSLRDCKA

HLA A*3201 = HLA A*3201 (Homo sapiens, UniProt P04439, A270S/D101S/D185E/E176V/E277Q/F133L/G103R/G107R/G231S/H175R/I121M/I218V/I322F/K168Q/L105A/L300P/L318F/M331R/P208A/P217A/Q94H/R106L/R138Q/S129P/T104I/T323A/T345S/V100E/V321M/V358M); assay: biochemical; type: binding
HLA B*5801 = HLA B*5801 (Homo sapiens, UniProt P01889, A329T/C349S/D201E/D98Y/E176V/E187L/E204Q/E69T/G107R/I218V/I90N/K202T/L105A/L119I/N104I/N87E/Q89R/Q94S/R106L/R155S/R180L/R86G/S101N/S121R/S35A/S48A/T118I/V127L/V306I/V36M/Y140S/Y91M); type: binding
HLA B*1503 = HLA B*1503 (Homo sapiens, UniProt P01889, A329T/A93T/A95T/C349S/D201E/D98Y/E187L/E204Q/K202T/N87E/Q94N/R155S/R180L/S121R/S35A/V306I/V36M/Y140S/Y91S); assay: biochemical; type: binding
HLA B*5401 = HLA B*5401 (Homo sapiens, UniProt P01889, A329T/C349S/D138N/D201E/E176V/E187T/E204Q/E69G/I76V/K202T/L119W/R155S/R180L/S121T/S35A/S48A/V127L/V306I/V36M/Y140L); type: binding
H-2 K^k = H-2 K^k (Mus musculus, UniProt P04223); type: binding
Chain of H-2 K^k (P01887 21-119): as the sequence (P01887 21-119) above
Chain of H-2 K^k (P04223 22-369): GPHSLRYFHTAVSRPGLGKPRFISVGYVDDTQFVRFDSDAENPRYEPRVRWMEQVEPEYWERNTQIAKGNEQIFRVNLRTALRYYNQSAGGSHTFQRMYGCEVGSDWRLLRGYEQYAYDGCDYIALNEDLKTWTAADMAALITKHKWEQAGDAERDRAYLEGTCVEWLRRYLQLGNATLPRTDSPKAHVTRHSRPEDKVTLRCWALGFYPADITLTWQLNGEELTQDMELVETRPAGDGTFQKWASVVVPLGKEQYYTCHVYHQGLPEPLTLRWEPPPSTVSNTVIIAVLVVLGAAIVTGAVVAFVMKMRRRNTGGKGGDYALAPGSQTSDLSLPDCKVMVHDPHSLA

HLA B*2705 = HLA B*2705 (Homo sapiens, UniProt P01889, D138H/D201E/E176V/E204Q/G107R/H137Y/K202T/N104T/N87E/Q56L/Q94K/R106L/R155S/R180L/S101D/S121N/S48T/Y140D/Y33H/Y91C); type: binding; details: positional scanning combinatorial 9-mer library; normalized to 1.0 for the best residue at each position
HLA A*3001 = HLA A*3001 (Homo sapiens, UniProt P04439, D140H/D185E/E176W/F33S/G80R/H175R/K168Q/R138E/R41S); assay: biochemical; type: binding
H-2 D^d = H-2 D^d (Mus musculus, UniProt P01900); type: binding
Chain of H-2 D^d (P01900 whole entry, looked up): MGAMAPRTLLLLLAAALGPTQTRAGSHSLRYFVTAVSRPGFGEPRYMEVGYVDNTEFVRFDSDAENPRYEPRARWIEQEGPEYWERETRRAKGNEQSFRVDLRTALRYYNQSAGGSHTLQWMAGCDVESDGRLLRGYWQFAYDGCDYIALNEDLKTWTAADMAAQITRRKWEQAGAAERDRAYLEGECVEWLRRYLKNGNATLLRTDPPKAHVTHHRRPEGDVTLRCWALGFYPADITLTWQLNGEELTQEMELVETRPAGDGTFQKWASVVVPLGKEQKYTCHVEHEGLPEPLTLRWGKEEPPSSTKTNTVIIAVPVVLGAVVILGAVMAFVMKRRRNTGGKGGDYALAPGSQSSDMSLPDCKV

HLA B*1501 = HLA B*1501 (Homo sapiens, UniProt P01889, A329T/A93T/A95T/C349S/D201E/D98Y/E187L/E204Q/E69M/E70A/K202T/N87E/Q94N/R155S/R180W/S121R/S35A/S48A/V306I/V36M/Y140S/Y91S); assay: biochemical; type: binding
HLA B*5802 = HLA B*5802 (Homo sapiens, UniProt P01889, A329T/C349S/D201E/D98Y/E176V/E187L/E204Q/E69T/G107R/I218V/I90N/K202T/L105A/N104I/N87E/Q89R/Q94S/R106L/R155S/R180L/R86G/S101N/S121W/S35A/S48A/V127L/V306I/V36M/Y140S/Y91M); type: binding
HLA A*0201 = HLA A*0201 (Homo sapiens, UniProt P04439, D140Y/D185E/D98H/E176V/E277Q/G131W/G231S/I119V/I121R/I166T/I218V/L300P/L318F/N151K/N90K/P208A/P217A/Q86G/Q94H/R138H/R169H/T345S); details: positional scanning combinatorial 9-mer library; normalized to 1.0 for the best residue at each position
HLA B*5301 = HLA B*5301 (Homo sapiens, UniProt P01889, A329T/A93T/A95T/C349S/D201E/D98Y/E176V/E187L/E204Q/E69T/G107R/I218V/K202T/L105A/L119I/N104I/Q94N/R106L/R155S/R180L/S101N/S121R/S35A/S48A/T118I/V127L/V306I/V36M/Y140S/Y91F); type: binding
HLA B*0702 = HLA B*0702 (Homo sapiens, UniProt P01889); type: binding; details: positional scanning combinatorial 9-mer library; normalized to 1.0 for the best residue at each position
HLA B*3501 = HLA B*3501 (Homo sapiens, UniProt P01889, A329T/A93T/A95T/C349S/D201E/D98Y/E176V/E187L/E204Q/E69T/I218V/K202T/L119I/Q94N/R155S/R180L/S121R/S35A/S48A/T118I/V127L/V306I/V36M/Y140S/Y91F); type: binding
HLA A*6802 = HLA A*6802 (Homo sapiens, UniProt P04439, A269V/D140Y/D185E/E176V/E277Q/E87N/F33Y/G231S/I121R/I166T/I218V/L180W/L300P/L318F/N151K/P208A/P217A/Q86R/R138H/R169H/S129P/T345S/V36M); type: binding

| Sequence | Normalized average relative binding affinity (ARB), HLA B*0801 (HLA B*0801) | Normalized average relative binding affinity (ARB), HLA B*5101 (HLA B*5101) | Normalized average relative binding affinity (ARB), H-2 Db (H-2 D^b) | Normalized average relative binding affinity (ARB), HLA A*3201 (HLA A*3201) | Normalized average relative binding affinity (ARB), HLA B*5801 (HLA B*5801) | Normalized average relative binding affinity (ARB), HLA B*1503 (HLA B*1503) | Normalized average relative binding affinity (ARB), HLA B*5401 (HLA B*5401) | Normalized average relative binding affinity (ARB), H-2 Kk (H-2 K^k) | Normalized average relative binding affinity (ARB), HLA B*2705 (HLA B*2705) | Normalized average relative binding affinity (ARB), HLA A*3001 (HLA A*3001) | Normalized average relative binding affinity (ARB), H-2 Dd (H-2 D^d) | Normalized average relative binding affinity (ARB), HLA B*1501 (HLA B*1501) | Normalized average relative binding affinity (ARB), HLA B*5802 (HLA B*5802) | Normalized average relative binding affinity (ARB), HLA A*0201 (HLA A*0201) | Normalized average relative binding affinity (ARB), HLA B*5301 (HLA B*5301) | Normalized average relative binding affinity (ARB), HLA B*0702 (HLA B*0702) | Normalized average relative binding affinity (ARB), HLA B*3501 (HLA B*3501) | Normalized average relative binding affinity (ARB), HLA A*6802 (HLA A*6802) |
| --- | --- | --- | --- | --- | --- | --- | --- | --- | --- | --- | --- | --- | --- | --- | --- | --- | --- | --- |
| IXXXXXXXX [3064.0008] | 0.068 | 0.23 | 0.13 | 0.47 | 0.35 | 0.51 | 0.27 | 0.27 | 0.22 | 0.11 | 0.39 | 1.0 | 0.17 | 0.12 | 0.15 | 0.42 | 0.30 | 0.076 |
| KXXXXXXXX [3064.0009] | 0.039 | 0.052 | 0.14 | 1.0 | 1.0 | 0.46 | 0.037 | 0.082 | 0.26 | 0.49 | 0.18 | 0.39 | 1.0 | 0.11 | 0.0057 | 0.37 | 0.050 | 0.013 |
| LXXXXXXXX [3064.0010] | 0.22 | 0.41 | 0.20 | 0.48 | 0.53 | 0.52 | 0.19 | 0.49 | 0.26 | 0.081 | 0.29 | 0.61 | 0.044 | 0.054 | 0.14 | 0.23 | 0.31 | 0.071 |
